5 compounds from patent US6956053B2, “Pyrazole derivatives and their use as gastrin and cholecystokin receptor ligands” (The James Black Foundation Limited, priority 2000, dated 2005) can be followed below.

The target in the test is T1, gastrin (CCK2) receptors (Rattus norvegicus, UniProt P30553).
T1 construct: The stomach was excised and flushed with ca. 1 ml of unbuffered physiological saline solution; from tissue; host or cells: isolated, lumen-perfused stomach of immature rats (33-50 g, ca. 21 days old)
T1 sequence (P30553 1-452): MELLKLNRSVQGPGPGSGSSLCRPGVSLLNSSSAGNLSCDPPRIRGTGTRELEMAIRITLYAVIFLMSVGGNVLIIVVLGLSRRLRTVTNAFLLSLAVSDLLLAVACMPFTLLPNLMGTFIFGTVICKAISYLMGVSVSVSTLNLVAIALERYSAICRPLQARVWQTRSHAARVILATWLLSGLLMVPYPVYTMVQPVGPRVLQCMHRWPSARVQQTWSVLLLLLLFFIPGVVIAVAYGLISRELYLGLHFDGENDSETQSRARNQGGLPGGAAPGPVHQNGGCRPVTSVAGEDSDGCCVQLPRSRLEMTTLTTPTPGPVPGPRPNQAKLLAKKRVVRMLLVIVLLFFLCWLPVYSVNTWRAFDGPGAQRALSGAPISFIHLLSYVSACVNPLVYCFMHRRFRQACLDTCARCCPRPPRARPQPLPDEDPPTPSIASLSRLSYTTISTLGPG
The experiment in a line: immature rat stomach assay, gastrin (CCK2) antagonist activity against pentagastrin-stimulated acid secretion. The test is classed as cell-based. To be noted: isolated immature rat stomach, pentagastrin dose-response curves, 60 min after drug addition; for Kb: read-out: Rat Stomach pKB (converted). How it is done:
The compounds of the examples were tested for gastrin (CCK2) antagonist activity in an immature rat stomach assay. The procedure was as follows:
The oesophagus of immature rats (33-50 g, ca. 21 days old) was ligated at the level of the cardiac sphincter and the duodenal sphincter was cannulated. The stomach was excised and flushed with ca. 1 ml of unbuffered physiological saline solution. The fundus was punctured and cannulated. A further 4-5 ml of unbuffered solution was flushed through the stomach to ensure the preparation was not leaking. The stomach was lowered into a jacketed organ bath containing 40 ml of buffered solution containing 3×10^−8 M 5-methylfurmethide, maintained at 37° and gassed vigorously with 95% O2/5% CO2. The stomach was continuously perfused at a rate of 1 ml min^−1 with unbuffered solution gassed with 100% O2 with the perfusate passing over an internally referenced pH-electrode fixed 12 cm above the stomach.
After 120 min of stabilisation the drugs were added directly to the serosal solution in the organ bath and after a further 60 min cumulative pentagastrin dose-response curves were started. Changes in acid secretion were monitored and the curves analysed according to Black et al., Br. J. Pharmacol., 1985, 86, 581.

For the compound “3-{[3-(Adamantan-1-yloxymethyl)-3-phenyl-1-o-tolyl-1H-pyrazole-4-carbonyl]-amino}-benzoic acid [Example 2]”, the “Rat Stomach pKB” value stood at 5.66 ± 0.24. `Cc1ccccc1-n1nc(COC23CC4CC(CC(C4)C2)C3)c(C(=O)Nc2cccc(C(=O)O)c2)c1O` [Example 3, 3-{[3-(Adamantan-1-yloxymethyl)-5-hydroxy-1-o-tolyl-1H-pyrazole-4-carbonyl]-amino}-benzoic acid]: the Kb is 0.0191 µM. Same read-out and setting: as for `O=C(O)c1cccc(NC(=O)c2c(COC34CC5CC(CC(C5)C3)C4)nn(C3CCCCC3)c2O)c1` [Example 4, 3-{[3-(Adamantan-1-yloxymethyl)-1-cyclohexyl-5-hydroxyl-1H-pyrazole-4-carbonyl]-amino}-benzoic acid], the figure is 0.0309 µM; as for `COc1c(C(=O)Nc2cccc(C(=O)O)c2)c(COC23CC4CC(CC(C4)C2)C3)nn1C1CCCCC1` [Example 5, 3-{[3-(Adamantan-1-yloxymethyl)-1-cyclohexyl-5-methoxy-1H-pyrazole-4-carbonyl]-amino}-benzoic acid], 0.17 µM; as for `Cn1c(COC23CC4CC(CC(C4)C2)C3)c(C(=O)Nc2cccc(C(=O)O)c2)c(=O)n1C1CCCCC1` [Example 6, 3-{[5-(Adamantan-1-yloxymethyl)-2-cyclohexyl-1-methyl-3-oxo-2,3-dihydro-1H-pyrazole-4-carbonyl]-amino}-benzoic acid], 0.269 µM.
